The source of these data is article PMC6760275, “Comparison of Zebrafish Larvae and hiPSC Cardiomyocytes for Predicting Drug-Induced Cardiotoxicity in Humans” (Toxicological Sciences, 2019).

The conditions of data set [1]: cited from earlier work; for market withdrawal due to cardiovascular adverse effects: ref Onakpoya et al., 2016, Siramshetty et al.; for cardiovascular clinical adverse effects: parent drug and/or metabolites, ref Zhang et al., 2012.
Another data set relates to Pluricyte hiPSC-CMs. Description: hiPSC-CM calcium transient FLIPR assay. The settings on record: 10 μM; for detection as cardiotoxic in hiPSC-CMs (hiPSC-CM positive): 0.1% DMSO, any feature significant at any time point (5, 30, 90 min); for time point of detection in hiPSC-CMs: T1 5 min, T2 30 min, T3 90 min after compound addition.
For a further data set, the system named is zebrafish larvae. Description: ZeCardio cardiotoxicity screen in zebrafish larvae (heart and blood flow imaging). As to the method:
Zebrafish (Danio rerio) were mated, staged, and raised by standard methods ([Westerfield, 2000]). The library screen was performed on double transgenic larvae for Tg[cmlc2: GFP] ([Huang et al., 2003]) and Tg[gata1: DsRed] ([Traver et al., 2003]). Tg[cmlc2: GFP] expresses green fluorescent protein (GFP) in cardiomyocytes and Tg[gata1: DsRed] expresses DsRed fluorescent protein in a subset of erythrocytes.
Determination of NOEC was achieved through an Acute Toxicity test performed on AB wildtype larvae from 3 to 96 hpf, as previously described ([Cornet et al., 2017]) (see Supplementary Table 1 for NOEC data for each compound). For the cardiotoxic drug screening, double transgenic zebrafish larvae for Tg[cmlc2: GFP] and Tg[gata1: DsRed] were collected and raised in Embryo Medium (E3/60× Stock: 34.4 g NaCl, 1.52 g KCl, 5.8 g CaCl2·2H2O, 9.8 g MgSO4·7H2O, add 18 MOhm double distilled water up to 2000 ml; pH: 7.2) at 28.5°C in a 12 h light/12 h dark cycle. From 24 hpf onward, larvae were incubated with N-PhenylThioUrea (PTU) (Sigma-Aldrich, No. P7629) 0.2 mM to reduce pigmentation. Embryo medium was changed every day until 5 dpf, when double positive transgenic larvae were selected. […] Larvae were immersed in E3 with PTU 0.2 mM and Tricaine methanesulfonate (Sigma-Aldrich, No. E10521) at […] working concentration and distributed in 96-well plates in 100 µl per well. Then, 100 µl of compound solution was added at double NOEC concentration to reach the working concentration per compound: NOEC, DMSO 1%, and the final volume of 200 µl per larva per well. Negative control larvae were incubated in 200 µl 1% DMSO. Embryos were allowed to incubate in the compound solution for 4 h before. The developmental stage selected for analysis (5 dpf) was chosen because heart electrophysiological maturation and heart rhythm are stabilized from 96 hpf ([Tessadori et al., 2012]). One hundred and twenty hours post fertilization constitutes the latest stage to perform analysis after heart maturation and with conformation to ethical guidelines. Finally, the drug incubation time of 4 h was selected according to a previously established experimental set up ([Cornet et al., 2017]). Twelve embryos (1 embryo/well) were imaged for each compound, and the screening of the whole library was distributed over 15 experimental days. On each experimental day, 8 molecules were imaged: 7 drugs and the negative control 1% DMSO, to allow intraexperimental comparison.
The hardware conforming the screening platform allows zebrafish larvae sampling from multi-well plates to allow their position and automatic orientation in a glass capillary under a microscope to perform high-throughput imaging acquisition. It integrates 2 commercially available systems. First, an integrated VAST system (Union Biometrica) ([Pardo-Martin et al., 2010]), which consists of 2 complementary devices: (1) LP sampler, an automated fluid system capable of aspirating small to medium sized particles from multi-well plates and delivering them intact to the VAST BioImager, and (2) VAST BioImager, an automated fluid system, which positions zebrafish larva in a glass capillary. Once introduced in the glass capillary, the larva is recognized by an integrated imaging system and rotated to the desired angle for external imaging. Second, a Leica DM6B upright widefield microscope with a motorized Z-stage and Leica DFC9000 GTC (4.2 megapixel) CMOS camera particularly suited for high-speed fluorescent imaging applications achieves the fluorescent time-lapse imaging. The 2 systems, VAST and Leica microscope, communicate to coordinate the tasks of sampling, positioning, and imaging. To control the microscope, the LASX software (Leica) was used. To focus fluorescent structures in z-direction, the Autofocus function in LASX was used.

Another data set concerns hERG. Also on record: method as in Guo et al., 2007; Shi et al., 2015. As to conditions: human patients and rat cardiomyocytes; ref Guo et al., 2007; Shi et al., 2015; cited from earlier work.
A further data set relates to AB wildtype larvae. As to the kind of experiment: Acute Toxicity test for NOEC determination in AB wildtype zebrafish larvae, 3 to 96 hpf. As to conditions: higher concentration than the working concentration. In kind it is in vivo, Danio rerio.
Where [2] appears, read: 5 dpf larvae, 4 h incubation at NOEC, 1% DMSO, positive if any numerical feature significant or flag incidence above 30%.

Molecules are shown by their SMILES. Entries after “also recorded” stand apart in the source; their conditions may differ. Like-named read-outs stand apart in the source and are kept apart here.

Method for AB wildtype larvae: Determination of NOEC was achieved through an Acute Toxicity test performed on AB wildtype larvae from 3 to 96 hpf, as previously described ([Cornet et al., 2017]) (see Supplementary Table 1 for NOEC data for each compound). […] Larvae were immersed in E3 with PTU 0.2 mM and Tricaine methanesulfonate (Sigma-Aldrich, No. E10521) at 168 mg/ml working concentration and distributed in 96-well plates in 100 µl per well. Then, 100 µl of compound solution was added at double NOEC concentration to reach the working concentration per compound: NOEC, DMSO 1%, and the final volume of 200 µl per larva per well. Negative control larvae were incubated in 200 µl 1% DMSO. Embryos were allowed to incubate in the compound solution for 4 h before. […] Twelve embryos (1 embryo/well) were imaged for each compound, and the screening of the whole library was distributed over 15 experimental days. On each experimental day, 8 molecules were imaged: 7 drugs and the negative control 1% DMSO, to allow intraexperimental comparison.
Method for Pluricyte hiPSC-CMs: hiPSC-CMs beat spontaneously under culture conditions and the beating pattern can be addressed by Ca^2+ dyes reporting the intracellular Ca^2+ concentration that is then measured by the fluorometric imaging plate reader (FLIPR).
This standard protocol was changed at 2 steps: hiPSC-CMs were not spun after thawing and the final concentration was 15 000 instead of 10 000 cells/well.
Twenty microliters of Ca-6 dye solution was added to each well of the assay plate and the assay plate was incubated for 2 h at 37°C, 5% CO2 in the dark. […] After baseline measurement, compounds were added and the fluorescence signal was measured 5, 30, and 90 min after compound treatment. Fifteen microliters of compound dilution was transferred from a compound source plate (40 μM, 0.4% DMSO) to the assay plate (already containing 25 μl cells and 20 μl Ca-6 dye) using FLIPR. The final compound concentration was 10 μM and 0.1% DMSO. Between each measurement the plate was returned to the same incubator. Five extracted features were quantified: beating frequency/beats per minute (bpm), amplitude (ampl), area under the curve (auc), peak width (pkw), and peak width at 10% amplitude (ppkw) are measures informing about the depolarization and repolarization kinetics. […] Each compound was assessed as triplicate at 3 time points after incubation (T1: 5 min, T2: 30 min, T3: 90 min). A measurement was taken prior to compound addition (baseline, not shown). As there was little variability in the baseline measurement, it was not necessary to normalize against baseline. An average of the data of each feature for each time point was fed into the statistical model to determine significant effects.
The LMMs include random effects accounting for the different sources of variation from the experimental design.

Turning to `CCCN1C[C@H](CSC)C[C@@H]2c3cccc4[nH]cc(c34)C[C@H]21` [Pergolide], the “clinical adverse effect leading to withdrawal” value in data set [1] (humans, no reference given) is recorded as “valvulopathies”. For the same molecule, the “market withdrawal due to cardiovascular adverse effects” value (“market withdrawal due” for short) in data set [1] (humans) was “withdrawn from the market”. Further, the “detection as cardiotoxic in hiPSC-CMs (hiPSC-CM positive)” value (from here on “detection as cardiotoxic in hiPSC-CMs”) in the data set with Pluricyte hiPSC-CMs is “failed to detect; also recorded: neither model detected”.
`CC(C)COCC(CN(Cc1ccccc1)c1ccccc1)N1CCCC1` (stereo not drawn) [Bepridil]: the “detection as cardiotoxic in zebrafish (zebrafish positive)” value (“detection as cardiotoxic in zebrafish” for short) with zebrafish larvae (in vivo) is listed as “detection”. The “market withdrawal due” value in data set [1] (humans) is reported as “withdrawn from the market”.
For the molecule `O=C(CCCN1CC=C(n2c(=O)[nH]c3ccccc32)CC1)c1ccc(F)cc1` [Droperidol], the “market withdrawal due” value in data set [1] (humans) was “withdrawn from the market”.
For the molecule `CS(=O)(=O)c1ccc(C2=C(c3ccccc3)C(=O)OC2)cc1` [Rofecoxib], in data set [1] (humans), the “cardiovascular clinical adverse effects” value was “heart attack and stroke”; the “market withdrawal due” value is on record as “withdrawn from the market due to cardiotoxicity concerns”. In addition, the “detection as cardiotoxic in hiPSC-CMs” value with Pluricyte hiPSC-CMs is recorded as “failed to detect; also recorded: did not even detect”.
As for `CC(C)(Sc1cc(C(C)(C)C)c(O)c(C(C)(C)C)c1)Sc1cc(C(C)(C)C)c(O)c(C(C)(C)C)c1` [Probucol], in the data set on zebrafish larvae (in vivo), the “detection as cardiotoxic in zebrafish” value is recorded as “detection”. In addition, the “effect on hERG activity” value in the data set with hERG is “interfere with hERG activity”. For the same molecule, in the data set with Pluricyte hiPSC-CMs, the “arrhythmic phenotypes in hiPSC-CMs” value is given as “does not show arrhythmic phenotypes” and the “detection as cardiotoxic in hiPSC-CMs” value was “failed to detect; also recorded: cannot detect”.
As for `CNCC(O)c1ccc(O)c(O)c1` (stereo not drawn) [Racepinephrine], in the data set with zebrafish larvae (in vivo), the “detection as cardiotoxic in zebrafish” value is reported as “detection” and the “heart rate (ventricular BPM) phenotype” value is “tachycardia”. The “market withdrawal due” value in data set [1] (humans) is reported as “withdrawn from the market”.
`CN1CCN(C2=Nc3cc(Cl)ccc3Nc3ccccc32)CC1` [Clozapine]: the “market withdrawal due” value in data set [1] (humans) was “withdrawn from the market”.
`COc1cccc2c1C(=O)c1c(O)c3c(c(O)c1C2=O)C[C@@](O)(C(=O)CO)C[C@@H]3O[C@H]1C[C@H](N)[C@H](O)[C@H](C)O1` [Doxorubicin]: the cardiotoxicity in humans result in data set [1] (ref Raj et al., 2014) was “promotes both acute and chronic cardiotoxicity in humans”.
In the case of `CCN[C@@H](C)Cc1cccc(C(F)(F)F)c1` [Dexfenfluramine], the “detection as cardiotoxic in zebrafish” value in the data set with zebrafish larvae (setting [2]) was “could detect all”. The “market withdrawal due” value in data set [1] (humans) was “withdrawn from the market due to cardiotoxicity concerns”. Further, the “detection as cardiotoxic in hiPSC-CMs” value in the data set with Pluricyte hiPSC-CMs is given as “failed to detect”.
`COc1cc(N)c(Cl)cc1C(=O)NC1CCN(CCCOc2ccc(F)cc2)CC1OC` (stereo not drawn) [Cisapride]: in the data set on zebrafish larvae (in vivo), the Bigeminy entry is recorded as “Bigeminy” and the “detection as cardiotoxic in zebrafish” value is “could detect all”. For the same molecule, in data set [1] (humans), the “market withdrawal due” value is “withdrawn from the market due to cardiotoxicity concerns”.
In the case of `CC(C)NCC(O)COc1cccc2ccccc12` (stereo not drawn) [Propranolol], the “heart rate (ventricular BPM) phenotype” value in the data set on zebrafish larvae (in vivo) is “bradycardia”.
As to `O=C(O[C@@H]1C[C@@H]2C[C@H]3C[C@H](C1)N2CC3=O)c1c[nH]c2ccccc12` [Dolasetron], the “detection as cardiotoxic in zebrafish” value with zebrafish larvae (in vivo) is reported as “could detect all”. In the data set on Pluricyte hiPSC-CMs, the “detection as cardiotoxic in hiPSC-CMs” value is “failed to detect”.
Turning to `COc1ccc(CCN2CCC(Nc3nc4ccccc4n3Cc3ccc(F)cc3)CC2)cc1` [Astemizole], the Bigeminy entry in the data set on zebrafish larvae (in vivo) is given as “Bigeminy”. Besides, in data set [1] (humans), the “cardiovascular clinical adverse effects” value was “promote cardiovascular clinical adverse effects through both the parent drug and metabolites”; the “market withdrawal due” value was “withdrawn from the market due to cardiotoxicity concerns”. Moreover, in the data set with Pluricyte hiPSC-CMs, the “detection as cardiotoxic in hiPSC-CMs” value is on record as “TP molecules for both models”.
In the case of `COCCc1ccc(OCC(O)CNC(C)C)cc1` (stereo not drawn) [Metoprolol], the “irregular beating of the heart (arrhythmia)” value in the data set on zebrafish larvae (in vivo) is given as “arrhythmia”.
Take `CC(C)CC(N(C)C)C1(c2ccc(Cl)cc2)CCC1` (stereo not drawn) [Sibutramine]: the “detection as cardiotoxic in zebrafish” value in the data set on zebrafish larvae (setting [2]) is listed as “could detect all; also recorded: TP molecules for both models”. Further, in data set [1] (humans), the “cardiovascular clinical adverse effects” value is “promote cardiovascular clinical adverse effects through both the parent drug and metabolites”; the “market withdrawal due” value is reported as “withdrawn from the market due to cardiotoxicity concerns”. Besides, in the data set with Pluricyte hiPSC-CMs, the “detection as cardiotoxic in hiPSC-CMs” value is “TP molecules for both models” and the “time point of detection in hiPSC-CMs” value was “detected only at T3; also recorded: only detected as cardiotoxic through the late assessment”.
In the case of `CC(C)NCC(O)c1cc(O)cc(O)c1` (stereo not drawn) [Metaproterenol], the “detection as cardiotoxic in zebrafish” value with zebrafish larvae (in vivo) is “could detect all”. In addition, the “market withdrawal due” value in data set [1] (humans) is recorded as “withdrawn from the market due to cardiotoxicity concerns”.
With `CC(C)C[C@H]1C(=O)N2CCC[C@H]2[C@]2(O)O[C@](NC(=O)[C@@H]3C=C4c5cccc6[nH]c(Br)c(c56)C[C@H]4N(C)C3)(C(C)C)C(=O)N12` [Bromocriptine], the “detection in zebrafish due to features other than ventricular BPM” value in the data set with zebrafish larvae (5 dpf larvae, 4 h incubation at NOEC) is on record as “detected for effects in features other than BPM; also recorded: enabled the detection”. Besides, the “irregular beating of the heart (arrhythmia)” value with zebrafish larvae (5 dpf larvae, 4 h incubation at NOEC, representative example) was “arrhythmia”. For the same molecule, the “market withdrawal due” value in data set [1] (humans) is listed as “withdrawn from the market”. Further, the “time point of detection in hiPSC-CMs” value with Pluricyte hiPSC-CMs is “detected only at T3; also recorded: only detected as cardiotoxic through the late assessment”.
For the molecule `CN(CCOc1ccc(NS(C)(=O)=O)cc1)CCc1ccc(NS(C)(=O)=O)cc1` [Dofetilide], the “detection as cardiotoxic in zebrafish” value in the data set on zebrafish larvae (in vivo) was “detection”. For the same molecule, the “market withdrawal due” value in data set [1] (humans) was “withdrawn from the market”.
As for `Cc1ccc(-c2cc(C(F)(F)F)nn2-c2ccc(S(N)(=O)=O)cc2)cc1` [Celecoxib], the “detection as cardiotoxic in zebrafish” value in the data set with zebrafish larvae (in vivo) is on record as “could detect all”. Further, in data set [1] (humans), the “market withdrawal due” value is reported as “withdrawn from the market due to cardiotoxicity concerns”. Besides, the “detection as cardiotoxic in hiPSC-CMs” value in the data set on Pluricyte hiPSC-CMs is on record as “failed to detect; also recorded: did not even detect”.
Consider `CCCCCCCN(CC)CCCC(O)c1ccc(NS(C)(=O)=O)cc1` (stereo not drawn) [Ibutilide], for which the cardiotoxicity in humans result in data set [1] (ref Stambler et al., 1997) is recorded as “can induce or worsen ventricular arrhythmias with fatal consequences”.
As to `CC(Cc1ccccc1)NCCC(c1ccccc1)c1ccccc1` (stereo not drawn) [Prenylamine], the “developmental defects in the acute toxicity test” value in the data set on AB wildtype larvae was “strong developmental defects”. In addition, the “market withdrawal due” value in data set [1] (humans) was “withdrawn from the market”.
